US20260327255A1, “LIGAND-DIRECTED COVALENT MODIFICATION OF AMINO ACID SIDE CHAINS USING CYCLIC IMINE MANNICH ELECTROPHILES” (Purdue Research Foundation, priority 2022, published 2026)
“Also recorded” adds a separate entry of the source. Blank lines part the entries; values can stand above or below the compound they belong to.

Key:
Aqueous solubility = assay type: physicochemical
[1] = Reaction of cyclic imines with N-acetyl-L-tyrosine methylamide (HPLC/LC-MS); conditions: for reaction half-life (t1/2): 5 mM imine, 100 mM Ac-Tyr-NHMe; for reaction half-life (t1/2) / reactivity to tyrosine: PBS pH 7, 37° C.; for second-order rate constant: pseudo-first order conditions; for reactivity to tyrosine: in words, Ac-Tyr-NHMe
Experimental: The reaction was monitored using liquid chromatography/mass spectrometry (LC/MS).
(§1) Reactions were conducted under pseudo first order conditions with an excess of one reactant. The reduction in the concentration of the limiting reactant A was measured at various time points by HPLC analysis. Rates of imine 1 with N-Ac-Tyr-NMe, indole-3-butyric acid, and 1H-pyrrole-1-propionic acid and of imine 2 with N-Ac-Tyr-NMe were measured.
(§2) Reaction of imine 1 (5 mM) with (A) N-Ac-Tyr-NHMe (100 mM) or (B) indole-3-butyrate (100 mM) at indicated time points.
(§3) Reaction of (A) imine 1 (5 mM) with N-Ac-Tyr-NHMe (100 mM) at 37° C. or (B) at room temperature. (C) imine 2 (5 mM) with N-Ac-Tyr-NHMe (100 mM) at 37° C. (D) imine 1 (5 mM) with indole-3-butyrate (100 mM) (E) imine 1 (10 mM) with 1 mM 1H-pyrrole-1-propionate (F) iminium 6 (5 mM) with N-Ac-Tyr-NHMe (100 mM) at 37° C. at pH 7 (G) iminium 6 (5 mM) with N-Ac-Tyr-NHMe (100 mM) at 37° C. at pH 3 at indicated time points.
Several cyclic imines (5 mM) were incubated with a simple tyrosine analog N-acetyl-L-tyrosine methylamide (Ac-Tyr-NHMe) in PBS pH 7 at 37° C. (FIGS. 2-3). The reactivity was quantitated by UV integration on HPLC with liquid chromatography/mass spectrometry (LC/MS) confirmation of reaction product identity (FIG. 4). Under these pseudo-first order reaction conditions, reaction half-lives and second-order rate constants were determined.

[2] = Reaction of imine 1 with indole-3-butyrate (tryptophan mimic)
Experimental: as §1, §2, §3

[3] = Reaction of imine 1 with 1H-pyrrole-1-propionate (pyrrole-Lys mimic)
Experimental: as §1, §3
We also tested 1 with N-ethyl pyrrole as a mimic of pyrrolated lysine, a lesser-known post-translational modification (Miyashita et al. Sci. Rep. 2014, 4, 5343; Chikazawa et al. J. Biol. Chem. 2020, 295(22), 7697-7709). […] Previous work with N-pyrrolyl alanine derivatives has shown fast and selective Pictet-Spengler reactions with aldehyde-containing biomolecules (Pomplun et al. Angew. Chemie Int. Ed. 2019, 58(11), 3542-3547).^50 Under conditions of 10 mM cyclic imine 1 with 1 mM 1H-pyrrole-1-propionate (as a soluble pyrrole-Lys mimic), we determined a second order rate constant of 5.9×10^−2 M^−1 s^−1 (FIGS. 3 and 5).

[4] = Amino acid mimetic reactivity, LC/MS: thiol (cysteine mimic); conditions: 100 mM, PBS pH 7, 37° C., 24 h
Experimental: (§4) Cyclic imine 1 was incubated with 100 mM compounds in PBS (pH 7) at 37° C. for 24 hours and then analyzed by LC/MS. (A) Compounds include β-mercaptoethanol, imidazole, isopropanol, n-butylamine, propionic acid, 3-methyl indole, and N-ethyl pyrrole (pyrrole-lysine). UV LC/MS traces for (B) β-mercaptoethanol, (C) 3-methyl indole, and (D) N-ethyl pyrrole. LR-ESI-MS: imine-thiol product m/z calc. for [M+H]^+ 231.1; found: 231.2. Imine-indole product m/z calc. for [M+H]^+: 284.2; found: 284.2. Imine-pyrrole product m/z calc. for |M+H|^+: 248.2; found: 248.2.
(§5) To assess the selectivity to other amino acids, we tested compounds mimicking amino acid side chain functional groups, including β-mercaptoethanol (cysteine), imidazole (histidine), isopropanol (serine/threonine), n-butylamine (lysine), propionic acid (aspartic acid/glutamic acid), 3-methyl indole (tryptophan), and N-ethyl pyrrole (pyrrole-lysine). […] Conjugation to thiols was expected based on previous reports (Minakawa et al. J. Org. Chem. 2008, 73(21), 8669-8672; Cavaca et al. Mol. 2022, 27(5), 1673).

[5] = Amino acid mimetic reactivity, LC/MS: indole (tryptophan mimic); conditions: 100 mM, PBS pH 7, 37° C., 24 h
Experimental: as §4, §5

[6] = Amino acid mimetic reactivity, LC/MS: pyrrole (pyrrole-lysine mimic); conditions: 100 mM, PBS pH 7, 37° C., 24 h
Experimental: as §4, §5

[7] = Stability of cyclic imines in aqueous media (LC/MS); assay type: physicochemical; conditions: 96-hours incubation in PBS, 0.1M HCl, 0.1M NaOH
Experimental: To validate the stability of cyclic imines as covalent warheads, imines 1-4 were evaluated by LC/MS after 96-hours incubation in PBS, 0.1M HCl, and 0.1M NaOH (Table 1).

[8] = Effect of thiols on tyrosine labeling with imine 1; conditions: 5 mM imine, 100 mM Tyr, 5 mM cysteine, vs control
Experimental: Cyclic imine 1 (5 mM) was incubated with 100 mM acetyl tyrosine methyl amide and 5 mM […] (in the presence of 5 mM TCEP). Reaction yield was quantified based on UV integrations of Mannich product at 4 h, 9 h, 17 h, 24 h, and 32 h. Imine consumption rate was quantified based on the UV integration of Mannich product at 4 h, 9 h, 17 h, 24 h, and 32 h.
Thiol addition to the imine is reversible, yet this reaction may limit the desired reactivity of imines to tyrosines in cellular contexts where glutathione concentrations can be 1-10 mM (Meister et al. J. Biol. Chem. 1988, 263(33), 17205-17208; Forman et al. Mol. Aspects Med. 2009, 30(1-2), 1). To evaluate this reversibility, the pre-formed thioaminal product of 1 with N-acetyl-cysteine methyl amide was treated with either glutathione (1 M) or Ac-Tyr-NHMe (100 mM). […] To evaluate potential effects of cellular thiols on tyrosine labeling rate, the cyclic imine-Tyr reaction (at 5 mM and 100 mM, respectively) was evaluated over time in the presence of cysteine (5 mM) (FIG. 9).

angiotensin II = experiment: Labeling of angiotensin II with imine 1 (LC/MS); conditions: 50 mM imine 1, 10 mM angiotensin II, 16 hours
Experimental: UV trace of reaction mixture of compound 1 (cyclic imine 1) with angiotensin II. […] (Mono cyclic imine-angiotensin II conjugate peak at 2 min): calc. [M+H]^+: 1199.2, found [M+H]^+: 1199.3, [M+2H]^2+: 600.3, [M+3H]^3+: 400.6. (Di-cyclic imine-angiotensin II conjugate peak at 2.1 min): calc. [M+H]^+: 1351.2, found [M+H]^+: 1351.8, [M+2H]^2+: 676.4, [M+3H]^3+: 451.0. (Unmodified angiotensin II (8-mer) peak at 2.2 min): m/z calc. [M+H]^+: 1047.2, found [M+H]^+: 1047.2, [M+2H]^2+: 524., [M+3H]^3+: 350.
(§6) To confirm reactivity and selectivity with a peptide context, imine 1 (50 mM) was incubated with the tyrosine-containing 8-mer peptide angiotensin II ([…]) (10 mM) (FIG. 10). The combined yield of mono-labeled and di-labeled angiotensin II was ~45% as quantified by LC/MS. Cyclic imine 1 (50 mM) was also incubated with a small protein (recombinant CBX8 chromodomain (ChD), which contains multiple tyrosines and tryptophans; 10 μM in PBS buffer (pH=7; 0.02% Tween 20)) at room temperature overnight. With overnight incubation, two to three additions of the imine were observed by mass spectrometry.

[9] = target: T1, recombinant CBX8 chromodomain (ChD) (Homo sapiens, UniProt Q9HC52); experiment: Labeling of CBX8 chromodomain with imine 1 (mass spectrometry); assay type: binding; conditions: 50 mM imine, 10 μM CBX8 ChD, PBS pH 7, 0.02% Tween 20, room temperature overnight
T1 construct: expected mass of CBX8 ChD 8792 Da
T1 sequence (Q9HC52 8-69 limits assumed): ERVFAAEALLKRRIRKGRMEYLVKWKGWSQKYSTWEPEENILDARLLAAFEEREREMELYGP
Experimental: as §6

[10] = Hydrolysis of aromatic ester imine in water / PBS; assay type: physicochemical

- aqueous solubility (Aqueous solubility): poor aqueous solubility
SMILES: Cc1c[nH]c2ccccc12 [3-methyl indole]

- stability (in words) [7]: stable under all conditions
- number of additions of the imine [9]: two to three
SMILES: O=C1C=NC2CCCCC2N1 (stereo not shown) [Compound 1]
- reaction half-life (t1/2) [1]: 8 ± 0.3 h
- second-order rate constant ([1]; 37° C.): 0.00024 M⁻¹ s⁻¹
- second-order rate constant ([1]; R.T.): 0.00015 M⁻¹ s⁻¹
- fold lower rate constant than to tyrosine ([2]; indole-3-butyrate vs tyrosine): 2 fold
- second order rate constant (k2) ([2]; indole-3-butyrate, 37° C.): 0.00011 M⁻¹ s⁻¹
- second order rate constant ([3]; 10 mM imine 1, 1 mM 1H-pyrrole-1-propionate): 0.059 M⁻¹ s⁻¹
- increase in rate constant relative to Tyr ([3]; 1H-pyrrole-1-propionate vs Tyr): ~ 200 fold
- conjugate formation with β-mercaptoethanol [4]: Stable conjugates
- conjugate formation with 3-methyl indole [5]: Stable conjugates; also recorded: multiple products
- conjugate formation with N-ethyl pyrrole [6]: Stable conjugates
- effect of cysteine on tyrosine-imine reaction rate [8]: slightly slowed the reaction rate
- combined yield of mono-labeled and di-labeled angiotensin II (angiotensin II): ~ 45%

- stability (in words) [7]: hydrolyzed under basic conditions
SMILES: O=C1C=NC2CCCCC2O1 (stereo not shown) [Compound 2]
- reaction half-life (t1/2) [1]: 0.667 h
- second-order rate constant ([1]; 37° C.): 0.0029 M⁻¹ s⁻¹
- increase in rate constant relative to 1 ([1]; relative to imine 1, Ac-Tyr-NHMe): ~ 10 fold

- degraded at 1 h ([10]; PBS, pH 7, within an hour): 70%
- stability in water ([10]; water): stable in water
SMILES: O=c1cnc2ccccc2o1 [Compound 3]
- reactivity to tyrosine [1]: did increase the rate of Mannich addition; also recorded: low intrinsic reactivity
- stability (in words) [7]: hydrolyzed under basic conditions; also recorded: unstable in PBS

- stability (in words) [7]: stable under all conditions
SMILES: Oc1cnc2ccccc2n1 [Compound 4]
- reactivity to tyrosine [1]: unreactive

SMILES: C#CCn1c(=O)cnc2ccccc21 [Compound 5]
- reactivity to tyrosine [1]: unreactive

SMILES: C1=NCCc2ccccc21 [Compound 9]
- reactivity to tyrosine [1]: limited

SMILES: CC1=NCCC1 [Compound 10]
- reactivity to tyrosine [1]: no
